From the kinase profiling compilation of Christmann-Franck et al. (2016)
Where “and” joins values, the source holds several entries; their conditions need not be identical. Identical values can stand only once.

Tests used:
Assay in all cases: radiometric filter-binding kinase assay, Kinase HotSpot
Conditions in all cases: compound 0.5 µM; ATP 10 µM
CAMKK1 (human) = CAMKK1 (human) (UniProt Q8N5S9)
PDGFRB (human) = PDGFRB (human) (UniProt P09619)
TBK1 (human) = TBK1 (human) (UniProt Q9UHD2)
MAPK13 (human) = MAPK13 (human) (UniProt O15264)
MAPK13 (human), sequence (O15264 whole entry, looked up): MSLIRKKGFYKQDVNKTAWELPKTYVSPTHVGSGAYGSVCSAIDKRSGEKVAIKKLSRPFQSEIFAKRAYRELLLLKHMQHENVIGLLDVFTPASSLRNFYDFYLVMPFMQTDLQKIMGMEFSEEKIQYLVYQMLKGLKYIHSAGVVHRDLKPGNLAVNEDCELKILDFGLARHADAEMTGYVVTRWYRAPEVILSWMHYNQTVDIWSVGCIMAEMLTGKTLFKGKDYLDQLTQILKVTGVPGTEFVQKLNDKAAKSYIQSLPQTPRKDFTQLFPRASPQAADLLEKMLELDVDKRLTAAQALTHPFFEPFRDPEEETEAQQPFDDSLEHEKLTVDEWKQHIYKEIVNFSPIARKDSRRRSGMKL

STK16 (human) = STK16 (human) (UniProt O75716)
PRKCB1 (human) = PRKCB1 (human) (UniProt P05771)
CAMK4 (human) = CAMK4 (human) (UniProt Q16566)
CDK4 CCND3 (human) = CDK4 CCND3 (human) (UniProt P30281+P11802)
TGFBR2 (human) = TGFBR2 (human) (UniProt P37173)
AKT2 (human) = AKT2 (human) (UniProt P31751)
ADRBK1 (human) = ADRBK1 (human) (UniProt P25098)
HIPK1 (human) = HIPK1 (human) (UniProt Q86Z02)
TTK (human) = TTK (human) (UniProt P33981)
PKN2 (human) = PKN2 (human) (UniProt Q16513)
PKN2 (human), sequence (Q16513 whole entry, looked up): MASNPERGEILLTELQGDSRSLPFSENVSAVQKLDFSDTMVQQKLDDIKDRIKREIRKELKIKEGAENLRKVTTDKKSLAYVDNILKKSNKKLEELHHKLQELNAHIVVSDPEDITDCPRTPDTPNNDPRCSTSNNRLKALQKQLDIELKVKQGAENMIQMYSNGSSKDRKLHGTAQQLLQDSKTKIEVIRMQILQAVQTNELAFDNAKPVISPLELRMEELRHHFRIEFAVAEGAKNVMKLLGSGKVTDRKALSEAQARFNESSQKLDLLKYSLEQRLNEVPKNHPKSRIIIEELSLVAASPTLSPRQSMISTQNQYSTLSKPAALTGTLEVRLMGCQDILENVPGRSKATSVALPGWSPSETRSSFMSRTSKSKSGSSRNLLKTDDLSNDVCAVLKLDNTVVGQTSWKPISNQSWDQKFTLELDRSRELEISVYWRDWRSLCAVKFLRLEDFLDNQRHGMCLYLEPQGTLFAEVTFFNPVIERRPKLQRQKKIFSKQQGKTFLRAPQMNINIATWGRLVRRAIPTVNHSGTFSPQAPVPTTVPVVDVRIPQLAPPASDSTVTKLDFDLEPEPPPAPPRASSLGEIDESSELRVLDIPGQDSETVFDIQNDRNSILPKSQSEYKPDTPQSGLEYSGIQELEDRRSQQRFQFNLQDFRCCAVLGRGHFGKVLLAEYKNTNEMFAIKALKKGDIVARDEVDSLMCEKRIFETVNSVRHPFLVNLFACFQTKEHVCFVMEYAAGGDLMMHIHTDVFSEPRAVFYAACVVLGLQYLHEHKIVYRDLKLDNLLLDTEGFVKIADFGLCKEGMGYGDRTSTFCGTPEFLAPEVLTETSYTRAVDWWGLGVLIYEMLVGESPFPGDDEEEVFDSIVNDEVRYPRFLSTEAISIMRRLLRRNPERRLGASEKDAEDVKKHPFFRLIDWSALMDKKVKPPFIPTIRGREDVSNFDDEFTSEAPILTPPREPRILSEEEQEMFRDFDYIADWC

NEK11 (human) = NEK11 (human) (UniProt Q8NG66)
PIM3 (human) = PIM3 (human) (UniProt Q86V86)
GRK5 (human) = GRK5 (human) (UniProt P34947)
EPHB1 (human) = EPHB1 (human) (UniProt P54762)
RPS6KB1 (human) = RPS6KB1 (human) (UniProt P23443)
RPS6KB1 (human), sequence (P23443 whole entry, looked up): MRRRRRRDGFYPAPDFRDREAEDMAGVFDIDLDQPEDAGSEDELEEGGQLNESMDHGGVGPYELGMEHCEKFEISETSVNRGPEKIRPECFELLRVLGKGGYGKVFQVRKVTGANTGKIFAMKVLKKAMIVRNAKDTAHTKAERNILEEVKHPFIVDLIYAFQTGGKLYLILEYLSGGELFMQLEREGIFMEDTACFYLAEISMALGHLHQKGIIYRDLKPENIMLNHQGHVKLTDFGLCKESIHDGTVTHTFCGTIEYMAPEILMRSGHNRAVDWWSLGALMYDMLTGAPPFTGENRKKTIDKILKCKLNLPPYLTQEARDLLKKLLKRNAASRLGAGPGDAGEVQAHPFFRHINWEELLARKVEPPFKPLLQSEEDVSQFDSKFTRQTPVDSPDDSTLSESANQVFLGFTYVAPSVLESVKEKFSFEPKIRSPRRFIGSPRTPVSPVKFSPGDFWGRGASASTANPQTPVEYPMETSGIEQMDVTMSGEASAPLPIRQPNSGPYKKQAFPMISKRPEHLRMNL

MARK4 (human) = MARK4 (human) (UniProt Q96L34)
FYN (human) = FYN (human) (UniProt P06241)
HIPK2 (human) = HIPK2 (human) (UniProt Q9H2X6)
MELK (human) = MELK (human) (UniProt Q14680)
EPHA3 (human) = EPHA3 (human) (UniProt P29320)
FRK (human) = FRK (human) (UniProt P42685)
CAMK1D (human) = CAMK1D (human) (UniProt Q8IU85)
HCK (human) = HCK (human) (UniProt P08631)
TEC (human) = TEC (human) (UniProt P42680)
IKBKB (human) = IKBKB (human) (UniProt O14920)
AURKA (human) = AURKA (human) (UniProt O14965)
LYN (human) = LYN (human) (UniProt P07948)
LYN (human), sequence (P07948 whole entry, looked up): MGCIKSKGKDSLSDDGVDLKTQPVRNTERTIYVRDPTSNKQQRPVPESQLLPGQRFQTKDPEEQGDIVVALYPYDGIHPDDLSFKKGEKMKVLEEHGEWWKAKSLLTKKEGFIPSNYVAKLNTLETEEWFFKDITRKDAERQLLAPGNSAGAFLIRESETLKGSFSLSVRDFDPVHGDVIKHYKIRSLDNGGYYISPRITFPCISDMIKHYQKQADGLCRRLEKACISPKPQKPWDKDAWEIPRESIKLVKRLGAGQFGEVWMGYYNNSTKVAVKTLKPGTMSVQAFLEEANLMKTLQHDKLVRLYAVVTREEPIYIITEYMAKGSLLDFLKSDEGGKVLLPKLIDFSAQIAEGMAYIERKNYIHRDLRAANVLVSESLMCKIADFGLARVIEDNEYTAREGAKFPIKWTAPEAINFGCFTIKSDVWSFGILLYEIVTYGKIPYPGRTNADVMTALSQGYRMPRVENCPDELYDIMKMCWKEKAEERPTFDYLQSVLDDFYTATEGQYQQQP

EPHA5 (human) = EPHA5 (human) (UniProt P54756)
SLK (human) = SLK (human) (UniProt Q9H2G2)
MYLK (human) = MYLK (human) (UniProt Q15746)
MYLK (human), sequence (Q15746 whole entry, looked up): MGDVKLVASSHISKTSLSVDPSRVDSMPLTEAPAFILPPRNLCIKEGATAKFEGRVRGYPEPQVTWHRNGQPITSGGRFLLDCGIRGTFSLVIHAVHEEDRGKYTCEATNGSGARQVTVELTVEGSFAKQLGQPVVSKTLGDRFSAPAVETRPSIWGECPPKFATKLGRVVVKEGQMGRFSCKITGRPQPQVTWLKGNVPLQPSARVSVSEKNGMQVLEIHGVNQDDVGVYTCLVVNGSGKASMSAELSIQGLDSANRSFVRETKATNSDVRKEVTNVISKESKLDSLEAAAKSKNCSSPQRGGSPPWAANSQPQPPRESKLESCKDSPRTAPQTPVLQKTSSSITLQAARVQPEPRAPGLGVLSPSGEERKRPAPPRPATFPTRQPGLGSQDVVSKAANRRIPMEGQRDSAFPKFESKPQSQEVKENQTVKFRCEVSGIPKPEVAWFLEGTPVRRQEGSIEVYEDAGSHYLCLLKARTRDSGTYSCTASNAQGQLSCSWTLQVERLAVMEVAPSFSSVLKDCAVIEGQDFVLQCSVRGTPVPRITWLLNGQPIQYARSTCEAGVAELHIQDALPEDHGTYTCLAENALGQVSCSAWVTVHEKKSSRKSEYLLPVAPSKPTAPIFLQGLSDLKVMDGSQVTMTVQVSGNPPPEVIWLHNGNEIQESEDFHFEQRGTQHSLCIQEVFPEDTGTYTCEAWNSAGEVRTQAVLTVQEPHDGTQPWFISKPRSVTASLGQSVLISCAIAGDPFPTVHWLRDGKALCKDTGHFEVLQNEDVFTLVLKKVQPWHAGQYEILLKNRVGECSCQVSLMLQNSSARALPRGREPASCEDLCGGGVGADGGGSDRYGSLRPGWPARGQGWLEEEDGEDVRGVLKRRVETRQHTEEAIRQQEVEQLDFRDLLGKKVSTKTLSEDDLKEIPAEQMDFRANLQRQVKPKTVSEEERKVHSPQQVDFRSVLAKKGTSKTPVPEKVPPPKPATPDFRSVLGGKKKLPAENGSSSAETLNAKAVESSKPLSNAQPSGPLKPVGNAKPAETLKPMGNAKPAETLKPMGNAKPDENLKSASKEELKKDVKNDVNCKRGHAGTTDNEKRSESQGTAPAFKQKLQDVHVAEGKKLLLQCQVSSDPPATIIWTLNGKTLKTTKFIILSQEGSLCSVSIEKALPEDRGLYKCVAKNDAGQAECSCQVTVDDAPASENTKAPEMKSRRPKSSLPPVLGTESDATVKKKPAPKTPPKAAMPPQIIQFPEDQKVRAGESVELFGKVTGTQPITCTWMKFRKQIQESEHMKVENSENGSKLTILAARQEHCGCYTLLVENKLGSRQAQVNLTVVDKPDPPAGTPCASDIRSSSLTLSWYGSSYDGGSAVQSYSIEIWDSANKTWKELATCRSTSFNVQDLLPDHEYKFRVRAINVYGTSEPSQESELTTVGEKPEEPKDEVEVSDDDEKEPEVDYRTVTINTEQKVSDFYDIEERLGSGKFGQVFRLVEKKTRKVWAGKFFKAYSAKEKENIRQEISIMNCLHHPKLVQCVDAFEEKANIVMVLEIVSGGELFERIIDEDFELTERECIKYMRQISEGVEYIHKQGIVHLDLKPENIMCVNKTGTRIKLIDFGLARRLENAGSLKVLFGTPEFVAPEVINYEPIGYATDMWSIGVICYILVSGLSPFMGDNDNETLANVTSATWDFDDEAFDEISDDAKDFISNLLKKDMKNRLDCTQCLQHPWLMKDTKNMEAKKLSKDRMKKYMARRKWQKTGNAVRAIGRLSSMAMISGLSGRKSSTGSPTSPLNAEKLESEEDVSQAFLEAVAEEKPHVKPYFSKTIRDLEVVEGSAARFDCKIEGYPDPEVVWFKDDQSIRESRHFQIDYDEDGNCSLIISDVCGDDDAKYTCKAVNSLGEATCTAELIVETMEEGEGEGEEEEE

OXSR1 (human) = OXSR1 (human) (UniProt O95747)
CSF1R (human) = CSF1R (human) (UniProt P07333)
MATK (human) = MATK (human) (UniProt P42679)
NUAK2 (human) = NUAK2 (human) (UniProt Q9H093)
DYRK4 (human) = DYRK4 (human) (UniProt Q9NR20)
PTK2 (human) = PTK2 (human) (UniProt Q05397)
TNK2 (human) = TNK2 (human) (UniProt Q07912)
NEK3 (human) = NEK3 (human) (UniProt P51956)

TBK1 (human), sequence (Q9UHD2 whole entry, looked up): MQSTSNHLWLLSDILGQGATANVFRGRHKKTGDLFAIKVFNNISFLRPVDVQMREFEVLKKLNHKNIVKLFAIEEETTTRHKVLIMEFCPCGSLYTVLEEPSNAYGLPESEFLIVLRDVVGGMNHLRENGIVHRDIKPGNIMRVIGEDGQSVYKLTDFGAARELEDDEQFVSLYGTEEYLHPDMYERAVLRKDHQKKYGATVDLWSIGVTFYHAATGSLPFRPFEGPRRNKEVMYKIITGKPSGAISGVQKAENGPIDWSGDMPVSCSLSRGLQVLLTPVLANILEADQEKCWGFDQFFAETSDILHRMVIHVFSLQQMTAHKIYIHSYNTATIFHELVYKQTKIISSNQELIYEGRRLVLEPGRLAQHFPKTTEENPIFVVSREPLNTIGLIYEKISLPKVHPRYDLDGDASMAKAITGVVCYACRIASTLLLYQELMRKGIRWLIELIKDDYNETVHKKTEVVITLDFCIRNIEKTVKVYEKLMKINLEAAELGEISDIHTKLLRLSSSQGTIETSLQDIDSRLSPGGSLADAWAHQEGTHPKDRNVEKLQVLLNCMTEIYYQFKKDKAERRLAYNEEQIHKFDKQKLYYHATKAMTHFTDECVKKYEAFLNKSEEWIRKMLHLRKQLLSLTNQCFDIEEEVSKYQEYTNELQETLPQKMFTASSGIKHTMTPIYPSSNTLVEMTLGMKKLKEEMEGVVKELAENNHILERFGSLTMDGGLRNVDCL

O=c1cc(N2CCOCC2)oc2c(-c3ccccc3)cccc12
residual activity (CAMKK1 (human)): 105% | residual activity (PDGFRB (human)): 102% | residual activity (TBK1 (human)): 94.1% | residual activity (MAPK13 (human)): 93.3% | residual activity (STK16 (human)): 97.5% | residual activity (PRKCB1 (human)): 96% | residual activity (CAMK4 (human)): 104% | residual activity (CDK4 CCND3 (human)): 96.2% | residual activity (TGFBR2 (human)): 142% | residual activity (AKT2 (human)): 94% | residual activity (ADRBK1 (human)): 106% | residual activity (HIPK1 (human)): 111% | residual activity (TTK (human)): 103% | residual activity (PKN2 (human)): 98.6% | residual activity (NEK11 (human)): 102% | residual activity (PIM3 (human)): 88.5% | residual activity (GRK5 (human)): 91.6% | residual activity (EPHB1 (human)): 95.9% | residual activity (RPS6KB1 (human)): 101% | residual activity (MARK4 (human)): 91.4% | residual activity (FYN (human)): 100% | residual activity (HIPK2 (human)): 122% | residual activity (MELK (human)): 91.3% | residual activity (EPHA3 (human)): 98.7% | residual activity (FRK (human)): 101% | residual activity (CAMK1D (human)): 47.9% | residual activity (HCK (human)): 98.3% | residual activity (TEC (human)): 107% | residual activity (IKBKB (human)): 100% | residual activity (AURKA (human)): 99% | residual activity (LYN (human)): 94.5% and 99.4% | residual activity (EPHA5 (human)): 113% | residual activity (SLK (human)): 102% | residual activity (MYLK (human)): 97.8% | residual activity (OXSR1 (human)): 118% | residual activity (CSF1R (human)): 98.3% | residual activity (MATK (human)): 84.6% | residual activity (NUAK2 (human)): 95.1% | residual activity (DYRK4 (human)): 91.9% | residual activity (PTK2 (human)): 103% | residual activity (TNK2 (human)): 88.7% | residual activity (NEK3 (human)): 102%
